Columns and labels:
mice [1] = assay: Timed ivPTZ seizure threshold test; assay type: in vivo; details: 50 mg/kg i.p.
From the text: The timed intravenous (iv) PTZ-induced seizure test was used to characterize the acute effect of compounds 26 and 28 on the thresholds for myoclonic, clonic, and tonic seizure in mice (Figure 2). It is noteworthy that the ivPTZ seizure test is a very sensitive method for determining the compounds’ effects on seizure threshold in rodents.[35] […] In the ivPTZ seizure test, bilateral forelimb tonic extension is usually quickly followed by hindlimb tonic extension and death due to respiratory arrest. […] In mice with no forelimb tonus, PTZ infusion was stopped after 180 s and the threshold dose of PTZ (in mg/kg) was calculated in those mice taking 180 s as infusion duration.
Figure 2 Acute effects of compounds 26 (A) and 28 (B) on seizure thresholds in the timed ivPTZ seizure test in mice. Both compounds were administered i.p. at a dose of 50 mg/kg, 30 min before the test. Control animals received vehicle. Data are presented as means (mg/kg PTZ) ± SEM (n = 9–13 animals). The statistical significance was evaluated by a Student’s t-test: *p < 0.05, **p < 0.01, ***p < 0.001, and ****p < 0.0001, as compared to the vehicle-treated group (GraphPad Prism 8).
(§1) In studies assessing the acute effect of compounds 26 and 28 on the ivPTZ seizure threshold and neuromuscular strength, the compounds were suspended in a 1% solution of Tween 80 and administered i.p., at a dose of 50 mg/kg of body weight, 30 min before the tests. The experimental procedures of the timed ivPTZ test and the grip strength test were described in detail elsewhere.[64]
(§2) Data from the ivPTZ test and the grip strength test were analyzed using Student’s t-test.

mice [2] = assay: Grip strength test; assay type: in vivo; details: 50 mg/kg i.p., 30 min before test
Procedure: The grip strength test was performed just before the ivPTZ test to assess the acute effect of compounds 26 and 28 on neuromuscular strength.
as §1, §2
Figure S1. Acute effects of compound 26 (A) and 28 (B) on grip strength in mice. Both compounds were administered i.p. at a dose of 50 mg/kg, 30 min before the test. Control animals received vehicle. Data are presented as means ± SEM of grip strength expressed in mN/g of body weight (n = 10animals). The statistical significance was evaluated by a Student's t test (GraphPad Prism 8). […]
Behavioral tests were performed 24 h after the last PTZ injection. […] The statistical significance was evaluated by one-way ANOVA followed by the Tukey’s post hoc test: *p < 0.05, (GraphPad Prism 8). […]

Na^+ channel (site 2) = assay: Na+ channel (site 2) radioligand binding; details: 100 μM, rat cerebral cortex
Procedure: (§3) Importantly, sodium or calcium conductance is often associated with the pathophysiology of epilepsy as well as neuropathic pain.[46]−[50] Therefore, both sodium and calcium ion channels are well-established molecular targets for structurally diverse ASMs such as LCS, lamotrigine, carbamazepine, oxcarbazepine, etc.[51] Consequently, we carried out binding and/or functional studies toward the sodium channel (site 2) and calcium Cav1.2 channel at high concentrations (100 μM) of 26 and 28 (Table 5). […] Next, 26 and 28 due to the presence of the phenylpiperazine moiety, which is a well-recognized pharmacophore for serotoninergic receptor (5-HTxR) ligands,[52] were evaluated for their influence on 5-HT2CR, where stimulation plays a key role for the antiseizure activity of lorcaserin (one of the newest ASMs).[6]
(§4) Binding/functional studies were carried out commercially in Eurofins Laboratories (Poitiers, France) and Eurofins Panlabs Discovery Services Taiwan, Ltd. (New Taipei City, Taiwan) using testing procedures that were reported previously (for details, see Table S2).
(§5) Table S2. Radioligand binding and functional assays. […]
(§6) Assays were performed commercially in Eurofins Laboratories ( Poitiers, France) or Eurofins Panlabs Discovery Services
(§7) Taiwan, Ltd. (New Taipei City, Taiwan).

5-HT2C (h) = 5-HT2C (h) (Homo sapiens, UniProt P28335); assay: 5-HT2C agonist effect functional assay; assay type: cell-based; details: HEK293, human recombinant HEK-293 cell, read-out: % inhibition of control agonist response (5-HT2C agonist effect)
Procedure: as §3, §4, §5
5-HT2C (agonist effect)
as §6, §7

TRPV1 (VR1) (h) = molecular target: T1, TRPV1 (VR1) (h) (Homo sapiens, UniProt Q8NER1); assay: TRPV1 antagonist effect functional assay; assay type: cell-based; details: 10 μM, human recombinant CHO cells; read-out: % inhibition of control agonist response
T1 construct: Eurofins (contract assay)
Procedure: For many years, the TRPV1 channel, permeable to calcium and sodium ions, has been recognized as a promising molecular target for novel analgesics.[19] […] Therefore, bearing in mind the involvement of TRPV1 in pain sensation and potentially in seizure induction, in the next step of the in vitro studies, the TRPV1 antagonist activity was determined for all compounds obtained (Table 6).
as §4, §5
TRPV1 (VR1) (h) (antagonist effect) […]
as §6, §7

[3] = system: human liver microsomes (HLMs); assay: Metabolic stability in human liver microsomes; assay type: in vitro ADME
From the text: Molecular mass Molecular mass of the
Substrate (m/z) metabolite (m/z) Metabolic pathway
* Reference unstable drug; metabolic stability determined using the same procedure published previously

[4] = HepG2 cell viability (hepatotoxicity); assay type: cell-based, human; details: human, HepG2 hepatoma cells; at 1.56 μM, 48 h; read-out: HepG2 viability (% of control ± SD)
Procedure: (§8) The in vitro safety tests were performed with the use of a hepatoma HepG2 cell line to estimate the hepatotoxic potential of the tested compounds.

HepG2 cell line = assay: HepG2 cell viability (hepatotoxicity); assay type: cell-based, human; details: for cell survival: HepG2, 100 μM; for concentration from which a statistically significant decrease of cell viability was observed: HepG2, 48 h
Procedure: as §8

CYP3A4 = CYP3A4 (Homo sapiens, UniProt P08684); details: 1 μM
CYP2D6 = CYP2D6 (Homo sapiens, UniProt P10635); details: 1 μM
HSA and AGP = assay: in vitro; details: human, plasma

T1 sequence (Q8NER1 whole entry): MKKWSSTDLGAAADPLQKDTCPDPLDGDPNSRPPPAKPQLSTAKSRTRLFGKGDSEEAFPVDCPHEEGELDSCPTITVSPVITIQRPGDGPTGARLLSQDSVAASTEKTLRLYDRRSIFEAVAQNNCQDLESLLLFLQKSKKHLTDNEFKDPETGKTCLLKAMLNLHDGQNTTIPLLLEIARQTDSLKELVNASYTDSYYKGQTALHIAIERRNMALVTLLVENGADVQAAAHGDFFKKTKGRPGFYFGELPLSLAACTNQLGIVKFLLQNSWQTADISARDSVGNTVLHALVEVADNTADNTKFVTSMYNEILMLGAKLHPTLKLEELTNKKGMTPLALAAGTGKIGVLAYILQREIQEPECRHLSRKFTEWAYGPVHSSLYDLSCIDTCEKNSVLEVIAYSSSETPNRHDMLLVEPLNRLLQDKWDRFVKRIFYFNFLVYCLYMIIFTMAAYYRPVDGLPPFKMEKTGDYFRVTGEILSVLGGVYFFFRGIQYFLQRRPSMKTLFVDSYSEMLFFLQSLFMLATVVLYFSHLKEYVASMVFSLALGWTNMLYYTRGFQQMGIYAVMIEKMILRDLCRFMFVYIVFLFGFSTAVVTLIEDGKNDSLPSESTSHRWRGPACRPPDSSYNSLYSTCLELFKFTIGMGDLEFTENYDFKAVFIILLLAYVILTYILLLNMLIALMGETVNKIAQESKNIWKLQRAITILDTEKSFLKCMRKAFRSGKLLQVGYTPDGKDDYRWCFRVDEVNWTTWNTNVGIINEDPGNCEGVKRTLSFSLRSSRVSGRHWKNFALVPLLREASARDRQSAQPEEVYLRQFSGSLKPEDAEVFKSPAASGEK
Sequence of CYP2D6 (P10635 whole entry): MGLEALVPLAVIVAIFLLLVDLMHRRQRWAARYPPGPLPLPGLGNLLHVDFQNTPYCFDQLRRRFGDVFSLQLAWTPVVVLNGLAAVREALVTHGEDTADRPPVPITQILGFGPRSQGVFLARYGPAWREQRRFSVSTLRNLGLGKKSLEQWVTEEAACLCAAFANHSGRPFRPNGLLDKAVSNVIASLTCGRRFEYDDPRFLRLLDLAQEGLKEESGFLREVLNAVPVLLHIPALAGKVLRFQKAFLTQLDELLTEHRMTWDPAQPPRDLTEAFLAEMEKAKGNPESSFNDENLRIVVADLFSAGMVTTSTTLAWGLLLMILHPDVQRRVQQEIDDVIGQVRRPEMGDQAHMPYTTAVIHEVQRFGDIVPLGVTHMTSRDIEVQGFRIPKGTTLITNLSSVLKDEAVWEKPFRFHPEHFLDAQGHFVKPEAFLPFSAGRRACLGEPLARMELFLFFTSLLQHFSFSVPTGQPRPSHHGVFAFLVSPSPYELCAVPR
Sequence of CYP3A4 (P08684 whole entry): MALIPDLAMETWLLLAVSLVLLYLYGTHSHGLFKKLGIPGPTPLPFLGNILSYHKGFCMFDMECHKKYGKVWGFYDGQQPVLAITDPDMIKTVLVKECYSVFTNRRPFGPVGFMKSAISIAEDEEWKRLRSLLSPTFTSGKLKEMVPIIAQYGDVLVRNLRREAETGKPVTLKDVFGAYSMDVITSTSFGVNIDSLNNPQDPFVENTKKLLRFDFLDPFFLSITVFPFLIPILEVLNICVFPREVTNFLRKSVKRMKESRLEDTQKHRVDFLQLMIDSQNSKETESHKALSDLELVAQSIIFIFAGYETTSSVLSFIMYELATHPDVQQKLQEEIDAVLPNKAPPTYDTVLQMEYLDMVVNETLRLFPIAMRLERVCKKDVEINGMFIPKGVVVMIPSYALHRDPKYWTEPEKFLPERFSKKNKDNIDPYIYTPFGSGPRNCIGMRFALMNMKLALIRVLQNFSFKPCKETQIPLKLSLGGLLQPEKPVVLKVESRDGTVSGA
Sequence of 5-HT2C (h) (P28335 33-458): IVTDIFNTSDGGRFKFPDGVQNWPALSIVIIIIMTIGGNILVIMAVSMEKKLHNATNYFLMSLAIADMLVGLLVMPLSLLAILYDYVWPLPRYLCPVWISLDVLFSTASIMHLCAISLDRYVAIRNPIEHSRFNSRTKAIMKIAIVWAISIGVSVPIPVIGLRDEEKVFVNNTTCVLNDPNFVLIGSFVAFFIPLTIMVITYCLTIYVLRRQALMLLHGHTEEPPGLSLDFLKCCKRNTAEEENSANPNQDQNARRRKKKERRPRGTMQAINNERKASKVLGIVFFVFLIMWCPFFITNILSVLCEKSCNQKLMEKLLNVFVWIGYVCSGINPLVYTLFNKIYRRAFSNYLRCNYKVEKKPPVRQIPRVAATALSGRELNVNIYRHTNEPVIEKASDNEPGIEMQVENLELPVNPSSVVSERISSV

% inhibition of control specific binding (Na^+ channel (site 2)) | inhibition at 10 µM (5-HT2C (h)) [%] | inhibition at 10 µM (TRPV1 (VR1) (h)) [%] | number of metabolites found after incubation with HLMs [3] | metabolic pathway of metabolite M1 ([3]; MS supported by MetaSite) | metabolic pathway of metabolite M2 ([3]; MS supported by MetaSite) | CYP3A4 activity (% of control ± SD) (CYP3A4) [%] | CYP2D6 activity (% of control ± SD) (CYP2D6) [%] | fraction unbound (HSA and AGP) | metabolic pathway of metabolite M3 ([3]; MS supported by MetaSite) | Structure (SMILES) | mice in which hindlimb tonus (only) was diminished/inhibited (mice [1]; 12 mice) | seizure threshold for generalized clonic seizure with loss of righting reflex (mice [1]; 30 min before ivPTZ) | seizure threshold for the first myoclonic twitch (mice [1]; 30 min before ivPTZ) | threshold for forelimb tonus (mice [1]; 30 min before ivPTZ) | neuromuscular strength (grip strength) (mice [2]) | viability at 48 h, 1.56 µM [4] [%] | cell survival (HepG2 cell line) | concentration from which a statistically significant decrease of cell viability was observed (HepG2 cell line) [µM] | mice in which both fore- and hindlimb tonus were completely inhibited (mice [1]; 12 mice)
4.5 (100) % | 0.5 | -4.9 | two | dehydrogenation and oxidation | dehydrogenation and oxidation | 114.1 ± 8.7 | 122.8 ± 11.7 | 0.214 | – | CC(=O)NC(C)C(=O)N1CCN(c2cccc(C(F)(F)F)c2)CC1 (centres unmarked) [Compound 26, N-(1-oxo-1-(4-(3-(Trifluoromethyl)phenyl)piperazin-1-yl)propan-2-yl)acetamide] | 10 out of 12 | significantly raised | significantly raised | did not significantly affect | Neither compound 26 nor 28 (50 mg/kg) significantly affect | 104 ± 8.8 | approximately 40% | 12.5 | –
–6.9 (100) % | 0.1 | 6.5 | three | double dehydrogenation | hydroxylation | 91.3 ± 12.7 | 115.0 ± 4.5 | 0.17 | double dehydrogenation | CC(=O)NC(C)C(=O)N1CCN(c2cccc(OC(F)(F)F)c2)CC1 (centres unmarked) [Compound 28, N-(1-oxo-1-(4-(3-(Trifluoromethoxy)phenyl)piperazin-1-yl)propan-2-yl)acetamide] | 3 mice | significantly raised | significantly raised | – | Neither compound 26 nor 28 (50 mg/kg) significantly affect | 88.2 ± 16.1 | approximately 40% | 25 | 9 out of 12

Reference: publication PMC11157491, “Novel Alaninamide Derivatives with Drug-like Potential for Development as Antiseizure and Antinociceptive Therapies—In Vitro and In Vivo Characterization” (ACS Chemical Neuroscience, 2024)
